Patent US20250099466A1 (BRISTOL-MYERS SQUIBB COMPANY, priority 2021, published 2025)

Legend:
[1] = test system: electrically induced carotid artery thrombus (ECAT) in rabbits; assay: Prevention rabbit model of electrically induced carotid artery thrombus (ECAT); type: in vivo
Procedure: The rabbit ECAT model as described by Wong et al., Nonpeptide factor Xa inhibitors: II.
Male New Zealand white rabbits were anesthetized with ketamine (50 mg/kg+50 mg/kg/h intramuscularly) and xylazine (10 mg/kg+10 mg/kg/h intramuscularly). Thrombosis was induced by electrical stimulation of the control carotid artery for 3 minutes at 4 mA using an external stainless-steel bipolar electrode. Carotid blood flow was measured with an electromagnetic flow probe continuously over a 90-minute period to monitor thrombosis induced occlusion. Integrated carotid blood flow was measured by the area under the flowtime curve (see Wong et al.). In addition, thrombus from the injured artery was removed, blotted twice on a weighing paper to remove residual fluid, and weighed.
To achieve a stable plasma level with minimum experimental variability, compounds were administered by IV infusion. […] The IV infusion was continued throughout the experiment for both models.
Integrated blood flow, thrombus weight, aPTT (activated partial thromboplastin time), TT (thrombin time), and PT (prothrombin time) were also measured.

aPTT = aPTT prolongation in healthy volunteers; type: in vivo, human; settings: 50-mg once daily dose, for about 24 hours

C[C@@H]1CCC[C@H](n2cnc(-c3cc(Cl)ccc3-n3cc(Cl)nn3)cc2=O)c2cc(ccn2)-c2c(cnn2C(F)F)NC1=O [milvexian, (5R,9S)-9-(4-(5-chloro-2-(4-chloro-1H-1,2,3-triazol-1-yl)phenyl)-6-oxopyrimidin-1(6H)-yl)-21-(difluoromethyl)-5-methyl-21H-3-aza-1(4,2)-pyridina-2(5,4)-pyrazolacyclononaphan-4-one]
thrombus weight reduction ([1]; highest dose (1+0.67 mg/kg+mg/kg/h IV), prevention ECAT): 70±2% | integrated blood flow, % of the control level ([1]; highest dose (1+0.67 mg/kg+mg/kg/h IV), prevention ECAT, n=6): 76±5% | duration of the patency of the carotid artery ([1]; prevention ECAT, 0.063+0.04, 0.25+0.17, 1+0.67 mg/kg+mg/kg/h IV): dose-dependent increase in duration of the patency of the carotid artery | bleeding time ([1]; rabbit): without a significant increase in bleeding time | antithrombotic 20% maximal effective concentration (EC20) ([1]; total plasma concentration, thrombus weight reduction, prevention ECAT): 55 nM | prolongation of aPTT (aPTT): 1.5 fold
